Source: patent US6410575B1, “Viral treatment” (The Procter & Gamble Company, priority 1999, dated 2002)
In brackets after ≈: the same amount, converted by molar mass. Several values for one entry are separate records, joined by “and”; a condition that tells them apart may be missing. Equal values may be shown once. Read-outs that look alike come from different tables or passages of the source.

How the values were obtained:
TPA-induced BCBL-1 cells = test: Toxicity values in the HHV8 test; format: cell-based
Method: (§1) Toxicity quantification involves the XTT-based evaluation. Assays were designed to characterize the long term effects of the compounds on virus production and to characterize the longer term effects of the compounds on virus production from chronically HIV infected cells.
(§2) The DNA copy number and the toxicity value were measured and compared with Cidofovir. Kaposi's sarcoma (KS) is a cancer that is often found in people with weak immune systems, such as those taking immunosuppressants or those with AIDS. The exact nature of the disease is uncertain, but it is almost always found in association with HHV8.

[1] = Toxicity values in the HHV8 test; format: cell-based; conditions: human, TPA-induced BCBL-1 cells; read-out: TC50 (the source's name)
Method: as §1, §2

hepatitis B = test: In vitro virus production test of hepatitis B, HEPG2 2.2.15; format: cell-based; conditions: for IC50: Hepatitis B virus, HepG2 2.2.15, hepatitis B, read-out: IC50
HIV-1 cell line, CEMSKI = test: Long term in vitro study, CEMSKI; format: cell-based
Method: as §1
CEM-SS cells chronically infected with HIV isolate, for example SKI (CEM-SKI) are cultured in RPMI1640 tissue culture medium supplemented with 10% fetal bovine serum and antibiotics. […] CEM-SKI or other infected cells with no added drug are used as the control cells.
Cells are allowed to grow to a density of approximately 1×10^6 cells/ml and are then passaged at a 1:10 dilution. […] The drug concentration in the flask is then increased two-fold and the cells maintained as above.
The cell populations contain integrated copies of the HIV genome and constitutively produce HIV at relatively high levels or are latently infected and only produce virus after stimulation with phorbol esters, tumor necrosis factor or IL6(U1 and ACH2). Reductions in virus products were observed when quantifying supernatant reverse transcriptase activity.
The results with CEMSKI cells was reported at weekly intervals.
The CEMSKI cell like is a viral strain of the CEMSS cell line.

vero cells = test: Herpes simplex testing, toxicity (TC50); design: unit not given beside the values

Compound: NC(=S)Nc1nsc(-c2ccccc2)n1
- % cell control (TPA-induced BCBL-1 cells; 0.64 μM): 114.3%
- % cell control (TPA-induced BCBL-1 cells; 2 μM): 114.9%
- % cell control (TPA-induced BCBL-1 cells; 6.4 μM): 104.6%
- % cell control (TPA-induced BCBL-1 cells; 20 μM): 114.8%
- % cell control (TPA-induced BCBL-1 cells; 64 μM): 59.7%
- % cell control (TPA-induced BCBL-1 cells; 200 μM): 23.4%
- CC50 [1]: 100 µM
- % virus control (hepatitis B; 0.64 μg/ml): 55.1%
- DNA Copy Number (per 3 μl), mean (hepatitis B; 0.64 μg/ml): 145.8 per 3 μl
- DNA Copy Number (per 3 μl), sample (hepatitis B; 0.64 μg/ml): 131.5 per 3 μl and 155.2 per 3 μl and 150.8 per 3 μl
- % virus control (hepatitis B; 2 μg/ml): 31.9%
- DNA Copy Number (per 3 μl), mean (hepatitis B; 2 μg/ml): 84.3 per 3 μl
- % virus control (hepatitis B; 6.4 μg/ml): 36.1%
- DNA Copy Number (per 3 μl), mean (hepatitis B; 6.4 μg/ml): 95.4 per 3 μl
- % virus control (hepatitis B; 20 μg/ml): 15.8%
- DNA Copy Number (per 3 μl), mean (hepatitis B; 20 μg/ml): 41.9 per 3 μl
- % virus control (hepatitis B; 64 μg/ml): 33.1%
- DNA Copy Number (per 3 μl), mean (hepatitis B; 64 μg/ml): 87.5 per 3 μl
- DNA Copy Number (per 3 μl), sample (hepatitis B; 64 μg/ml): 98.6 per 3 μl and 76.0 per 3 μl and 87.8 per 3 μl
- % virus control (hepatitis B; 200 μg/ml): 22.7%
- DNA Copy Number (per 3 μl), mean (hepatitis B; 200 μg/ml): 60.0 per 3 μl
- IC50 (hepatitis B; HEPG2 2.2.15, replicate experiment): 0.76 µg/mL (≈ 3.22 µM)
- IC50 (hepatitis B; HEPG2 2.2.15): 0.94 µg/mL (≈ 3.98 µM)
- therapeutic index or TI (hepatitis B; hepatitis B, HEPG2 2.2.15): 212.8
- TI (hepatitis B; hepatitis B, HEPG2 2.2.15, replicate experiment): 263.2
- virus production (supernatant reverse transcriptase activity) (HIV-1 cell line, CEMSKI; 7 μg/ml, day 4): 6593
- virus production (supernatant reverse transcriptase activity) (HIV-1 cell line, CEMSKI; 7 μg/ml, day 11): 8676
- virus production (supernatant reverse transcriptase activity) (HIV-1 cell line, CEMSKI; 7 μg/ml, day 18): 10912
- virus production (supernatant reverse transcriptase activity) (HIV-1 cell line, CEMSKI; 7 μg/ml, day 25): 9356
- virus production (supernatant reverse transcriptase activity) (HIV-1 cell line, CEMSKI; 7 μg/ml, day 32): 8803
- virus production (supernatant reverse transcriptase activity) (HIV-1 cell line, CEMSKI; 7 μg/ml, day 39): 6655
- virus production (supernatant reverse transcriptase activity) (HIV-1 cell line, CEMSKI; 7 μg/ml, day 46): 8280
- virus production (supernatant reverse transcriptase activity) (HIV-1 cell line, CEMSKI; 7 μg/ml, day 53): 7549
- virus production (supernatant reverse transcriptase activity) (HIV-1 cell line, CEMSKI; 15 μg/ml, day 4): 6815
- virus production (supernatant reverse transcriptase activity) (HIV-1 cell line, CEMSKI; 15 μg/ml, day 11): 8202
- virus production (supernatant reverse transcriptase activity) (HIV-1 cell line, CEMSKI; 15 μg/ml, day 18): 10389
- virus production (supernatant reverse transcriptase activity) (HIV-1 cell line, CEMSKI; 15 μg/ml, day 25): 7816
- virus production (supernatant reverse transcriptase activity) (HIV-1 cell line, CEMSKI; 15 μg/ml, day 32): 6672
- virus production (supernatant reverse transcriptase activity) (HIV-1 cell line, CEMSKI; 15 μg/ml, day 39): 7087
- virus production (supernatant reverse transcriptase activity) (HIV-1 cell line, CEMSKI; 15 μg/ml, day 46): 6457
- virus production (supernatant reverse transcriptase activity) (HIV-1 cell line, CEMSKI; 15 μg/ml, day 53): 6544
- virus production (supernatant reverse transcriptase activity) (HIV-1 cell line, CEMSKI; 30 μg/ml, day 4): 6626
- virus production (supernatant reverse transcriptase activity) (HIV-1 cell line, CEMSKI; 30 μg/ml, day 11): 6582
- virus production (supernatant reverse transcriptase activity) (HIV-1 cell line, CEMSKI; 30 μg/ml, day 18): 7494
- virus production (supernatant reverse transcriptase activity) (HIV-1 cell line, CEMSKI; 30 μg/ml, day 25): 4421
- virus production (supernatant reverse transcriptase activity) (HIV-1 cell line, CEMSKI; 30 μg/ml, day 32): 4056
- virus production (supernatant reverse transcriptase activity) (HIV-1 cell line, CEMSKI; 30 μg/ml, day 39): 2118
- virus production (supernatant reverse transcriptase activity) (HIV-1 cell line, CEMSKI; 30 μg/ml, day 46): 4117
- virus production (supernatant reverse transcriptase activity) (HIV-1 cell line, CEMSKI; 30 μg/ml, day 53): 4779
- virus production (supernatant reverse transcriptase activity) (HIV-1 cell line, CEMSKI; repeated test, 7 μg/ml, day 4): 6224
- virus production (supernatant reverse transcriptase activity) (HIV-1 cell line, CEMSKI; repeated test, 7 μg/ml, day 11): 6658
- virus production (supernatant reverse transcriptase activity) (HIV-1 cell line, CEMSKI; repeated test, 7 μg/ml, day 18): 7207
- virus production (supernatant reverse transcriptase activity) (HIV-1 cell line, CEMSKI; repeated test, 7 μg/ml, day 25): 5725
- virus production (supernatant reverse transcriptase activity) (HIV-1 cell line, CEMSKI; repeated test, 7 μg/ml, day 32): 3161
- virus production (supernatant reverse transcriptase activity) (HIV-1 cell line, CEMSKI; repeated test, 7 μg/ml, day 39): 9602
- virus production (supernatant reverse transcriptase activity) (HIV-1 cell line, CEMSKI; repeated test, 7 μg/ml, day 46): 13984
- virus production (supernatant reverse transcriptase activity) (HIV-1 cell line, CEMSKI; repeated test, 7 μg/ml, day 53): 11578
- virus production (supernatant reverse transcriptase activity) (HIV-1 cell line, CEMSKI; repeated test, 15 μg/ml, day 4): 5685
- virus production (supernatant reverse transcriptase activity) (HIV-1 cell line, CEMSKI; repeated test, 15 μg/ml, day 11): 5733
- virus production (supernatant reverse transcriptase activity) (HIV-1 cell line, CEMSKI; repeated test, 15 μg/ml, day 18): 6236
- virus production (supernatant reverse transcriptase activity) (HIV-1 cell line, CEMSKI; repeated test, 15 μg/ml, day 25): 3752
- virus production (supernatant reverse transcriptase activity) (HIV-1 cell line, CEMSKI; repeated test, 15 μg/ml, day 32): 2451
- virus production (supernatant reverse transcriptase activity) (HIV-1 cell line, CEMSKI; repeated test, 15 μg/ml, day 39): 5526
- virus production (supernatant reverse transcriptase activity) (HIV-1 cell line, CEMSKI; repeated test, 15 μg/ml, day 46): 12397
- virus production (supernatant reverse transcriptase activity) (HIV-1 cell line, CEMSKI; repeated test, 15 μg/ml, day 53): 9662
- virus production (supernatant reverse transcriptase activity) (HIV-1 cell line, CEMSKI; repeated test, 30 μg/ml, day 4): 4789
- virus production (supernatant reverse transcriptase activity) (HIV-1 cell line, CEMSKI; repeated test, 30 μg/ml, day 11): 5200
- virus production (supernatant reverse transcriptase activity) (HIV-1 cell line, CEMSKI; repeated test, 30 μg/ml, day 18): 4821
- virus production (supernatant reverse transcriptase activity) (HIV-1 cell line, CEMSKI; repeated test, 30 μg/ml, day 25): 2418
- virus production (supernatant reverse transcriptase activity) (HIV-1 cell line, CEMSKI; repeated test, 30 μg/ml, day 32): 1651
- virus production (supernatant reverse transcriptase activity) (HIV-1 cell line, CEMSKI; repeated test, 30 μg/ml, day 39): 3386
- virus production (supernatant reverse transcriptase activity) (HIV-1 cell line, CEMSKI; repeated test, 30 μg/ml, day 46): 9353
- virus production (supernatant reverse transcriptase activity) (HIV-1 cell line, CEMSKI; repeated test, 30 μg/ml, day 53): 6466
- TC50 (vero cells): > 200
